Counter-ions that a name gives are not always drawn.
Columns and labels:
[1] = test system: mice with type II collagen-induced arthritis; assay: Test Example 3: N-acetylhydroxyproline, glucosamine and chondroitin in feed, type II collagen-induced arthritis score; format: in vivo, DBA/1J mice; conditions: for Score of arthritis: 0.05% of each additive in feed from day of first collagen administration, mean ±SE, N=20, scale 0-16
Experimental: (§1) Unless otherwise noted, in the following test examples, DBA/1J mice produced by Charles River, powder feed CE2 produced by CLEA Japan, N-acetylhydroxyproline produced by Kyowa Hakko Kogyo, D-glucosamine sulfate 2NaCl as glucosamine (Miyako Kagaku) and chondroitin sodium sulfate (Maruha Kagaku) as chondtoitin were used.
(§2) Scoring was carried out by applying 0-4 points with respect to one of four paws of mice: 0: no symptom; 1: swelling of one finger or swelling (slight) of the ankle; 2: swelling of 1-3 fingers or swelling of the ankle; 3: swelling of 3-5 fingers plus swelling of the ankle; and 4: swelling of all the fingers plus swelling of the ankle. Each mouse was scored the total of the points of 4 paws, namely, 0-16 points.
An experiment similar to that of Test Example 1 was carried out except that glucosamine and chondroitin were used in place of glucosamine.
(§3) That is, 21 days after the first administration of type II collagen, a solution prepared by mixing an equal amount of type II collagen and Freund's complete adjuvant and emulsifying the mixture using a homogenizer in a similar manner as in Test Example 1 was intradermally administered to the mice in an amount of 100 μl per one animal as the second administration of type II collagen. In this manner, arthritis was induced in mice.
Starting on the day of the first administration of type II collagen, the mice were given powder feed CE-2 containing no additive as control; powder feed CE-2 containing 0.05% N-acetylhydroxyproline (indicated as AcHYP in Tables 3-1 and 3-2); powder feed CE-2 containing 0.05% N-acetylhydroxyproline and 0.05% chondroitin; and powder feed CE-2 containing 0.05% N-acetylhydroxyproline, 0.05% glucosamine and 0.05% chondroitin, respectively. At days 24, 28, 31, 35, 38 and 42 after the first administration of type II collagen, the extent of the development of arthritis was scored according to the indices employed in the above Test Example 1.
(§4) Twenty mice were subjected to the test with respect to each of the conditions.
(§5) In the tables, the figures show the scores under different treatment conditions, which are given as mean ±SE (N=20).
(§6) In the tables, “no treatment” means no administration of type II collagen, and “control” means mice were given the feed containing no additive.

[2] = test system: mice with type II collagen-induced arthritis; assay: Test Example 2: N-acetylhydroxyproline and chondroitin in feed, type II collagen-induced arthritis score; format: in vivo, DBA/1J mice; parameters: key to Score of arthritis: sum of 4 paws scored 0-4 each, 0-16 points; 0 = no symptom; conditions: for Score compared with control (in words): 0.1% added to the feed; for Score of arthritis: 0.1% in feed from day of first collagen administration, mean ±SE, N=20, scale 0-16
Experimental: as §1, §2
An experiment similar to that of Test Example 1 was carried out except that chondroitin was used in place of glucosamine.
as §3
Starting on the day of the first administration of type II collagen, the mice were given powder feed CE-2 containing no additive as control; powder feed CE-2 containing 0.1% N-acetylhydroxyproline (indicated as AcHYP in Tables 2-1 and 2-2); powder feed CE-2 containing 0.1% chondroitin; and powder feed CE-2 containing 0.05% N-acetylhydroxyproline and 0.05% chondroitin, respectively. At days 23, 27, 30, 33, 36, 40 and 42 after the first administration of type II collagen, the extent of the development of arthritis was scored according to the indices employed in the above Test Example 1.
as §4, §5, §6

[3] = test system: mice with type II collagen-induced arthritis; assay: Test Example 4: feed given from day 28 (after induction), type II collagen-induced arthritis score; format: in vivo, DBA/1J mice; conditions: day 0 (before feeding); 0.1% in feed starting at day 28; mean ±SE, N=10; scale 0-16
[4] = test system: mice with type II collagen-induced arthritis; assay: Test Example 1: N-acetylhydroxyproline and glucosamine in feed, type II collagen-induced arthritis score; format: in vivo, DBA/1J mice; conditions: for Scores compared with control (in words): 0.1% added to the feed, compared with no additive (control); for Score of arthritis: 0.1% in feed from day of first collagen administration, mean ±SE, N=20, scale 0-16
Text: as §1
It is known that arthritis is induced in DBA/1J mice by administering type II collagen two times.
As the first administration of type II collagen, a solution prepared by mixing an equal amount of type II collagen [Collagen Gijutsu Kenshu Kaisha (MCK)] and Freund's complete adjuvant (Iatron) and emulsifying the mixture using a homogenizer was intradermally administered to 6-week old male DBA/1J mice in an amount of 100 μl per one animal.
as §3, with “Twenty-one days” for “That is, 21 days”, “collagen, EXAMPLE” for “collagen,”, “manner” for “manner as in Test Example 1”, “the animals” for “the mice”
Starting on the day of the first administration of type II collagen, the mice were given powder feed CE-2 containing no additive as control; powder feed CE-2 containing 0.1% N-acetylhydroxyproline (indicated as AcHYP in Tables 1-1 and 1-2); powder feed CE-2 containing 0.1% glucosamine (D-glucosamine sulfate 2NaCl); and powder feed CE-2 containing 0.05% N-acetylhydroxyproline and 0.05% glucosamine, respectively. At days 24, 28, 31, 34, 38 and 42 after the first administration of type II collagen, the extent of the development of arthritis was scored according to the following indices.
as §2, §4, §5, §6

arthritis = conditions: Pharmacological Research, 33, 367-373 (1996); cited from earlier work
[5] = test system: mice with type II collagen-induced arthritis; assay: Test Example 4: feed given from day 28 (after induction), type II collagen-induced arthritis score; format: in vivo, DBA/1J mice; conditions: for Scores compared with control (in words): 0.1% added to the feed from day 28, any of the days after day 33; for Score of arthritis: 0.1% in feed starting at day 28, mean ±SE, N=10, scale 0-16
Experimental: as §1, §2
as §3, with “As in Test Example 1,” for “That is,”
Starting at day 28 after the first administration of type II collagen, the mice were given powder feed CE-2 containing no additive as control; powder feed CE-2 containing 0.1% N-acetylhydroxyproline (indicated as AcHYP in Tables 4-1 and 4-2); powder feed CE-2 containing 0.1% glucosamine; powder feed CE-2 containing 0.05% N-acetylhydroxyproline and 0.05% glucosamine; powder feed CE-2 containing 0.05% glucosamine and 0.05% chondroitin; and powder feed CE-2 containing 0.05% N-acetylhydroxyproline, 0.025% glucosamine and 0.025% chondroitin, respectively. At days 28, 33, 36, 39 and 42 after the first administration of type II collagen, the extent of the development of arthritis was scored according to the indices employed in the above Test Example 1.
Ten mice were subjected to the test with respect to each of the conditions.
In the tables, the figures show the scores under different treatment conditions, which are given as mean ±SE (N=10).
as §6

[6] = test system: animal model for arthritis; conditions: administration after induction of arthritis; J. Drug. Dev., 3, 135-142 (1990); cited from earlier work

For `CC(=O)N1C[C@H](O)C[C@H]1C(=O)O` [AcHYP, N-acetylhydroxyproline], the “Scores compared with control (in words)” value ([1]; 0.05% of each additive in the feed, any of the days after day 24) was “almost no lowering of the scores”, the Score of arthritis ([1]; day 0) was 0.0 ± 0.0 and the Score of arthritis ([1]; day 24) was 0.2 ± 0.1. For the same compound, the Score of arthritis ([1]; day 28) was 5.4 ± 0.6, the Score of arthritis ([1]; day 31) was 8.5 ± 0.7 and the Score of arthritis ([1]; day 35) was 9.4 ± 0.8. The Score of arthritis ([1]; day 38) was 9.9 ± 0.8, the Score of arthritis ([1]; day 42) was 9.4 ± 0.7 and the “Score compared with control (in words)” value ([2]; any of the days after day 27) was “lowering of the score”. It also gave a Score of arthritis ([2]; day 0) of 0.0 ± 0.0, a Score of arthritis ([2]; day 23) of 0.1 ± 0.1 and a Score of arthritis ([2]; day 27) of 3.3 ± 0.7. It also gave a Score of arthritis ([2]; day 30) of 7.0 ± 0.9, a Score of arthritis ([2]; day 33) of 7.8 ± 0.9 and a Score of arthritis ([2]; day 36) of 7.9 ± 1.0. The Score of arthritis ([2]; day 40) was 8.4 ± 0.9, the Score of arthritis ([2]; day 42) was 8.8 ± 0.8 and the Score of arthritis [3] was 0.0 ± 0.0. For the same compound, the “Scores compared with control (in words)” value [4] was “lowering of the scores”, the Score of arthritis ([4]; day 0) was 0.0 ± 0.0 and the Score of arthritis ([4]; day 24) was 0.0 ± 0.0. For the same compound, the Score of arthritis ([4]; day 28) was 6.5 ± 0.7, the Score of arthritis ([4]; day 31) was 9.5 ± 0.8 and the Score of arthritis ([4]; day 34) was 10.7 ± 0.8. For the same compound, the Score of arthritis ([4]; day 38) was 10.8 ± 0.8, the Score of arthritis ([4]; day 42) was 10.6 ± 0.8 and the “Effect on chondral injury at joints” value (arthritis) was “shows no effect”. The “Effect on systemic injury of ear and tail” value (arthritis) was “shows a therapeutic effect”, the “Scores compared with control (in words)” value [5] was “slight lowering of the scores” and the Score of arthritis ([5]; day 28 (start of feeding)) was 4.3 ± 0.9. The Score of arthritis ([5]; day 33) was 9.8 ± 1.0, the Score of arthritis ([5]; day 36) was 10.9 ± 1.1 and the Score of arthritis ([5]; day 39) was 10.7 ± 1.1. The Score of arthritis ([5]; day 42) was 10.8 ± 1.0 and the Aggravation of arthritis [6] was “can prevent aggravation of arthritis”.

For `N[C@H]1C(O)O[C@H](CO)[C@@H](O)[C@@H]1O` (stereo partly drawn) [Glucosamine, D-glucosamine sulfate 2NaCl], the Score of arthritis [3] was 0.0 ± 0.0, the “Scores compared with control (in words)” value [4] was “lowering of the scores” and the Score of arthritis ([4]; day 0) was 0.0 ± 0.0. For the same compound, the Score of arthritis ([4]; day 24) was 0.1 ± 0.1, the Score of arthritis ([4]; day 28) was 5.8 ± 0.6 and the Score of arthritis ([4]; day 31) was 7.7 ± 0.7. For the same compound, the Score of arthritis ([4]; day 34) was 9.2 ± 0.7, the Score of arthritis ([4]; day 38) was 9.5 ± 0.6 and the Score of arthritis ([4]; day 42) was 9.4 ± 0.6. The “Scores compared with control (in words)” value [5] was “slight lowering of the scores”, the Score of arthritis ([5]; day 28 (start of feeding)) was 4.3 ± 0.9 and the Score of arthritis ([5]; day 33) was 9.8 ± 1.2. The Score of arthritis ([5]; day 36) was 10.1 ± 1.1, the Score of arthritis ([5]; day 39) was 10.4 ± 1.0 and the Score of arthritis ([5]; day 42) was 10.6 ± 1.0.

In the case of chondroitin sodium sulfate, the “Score compared with control (in words)” value ([2]; after day 36) is reported as “almost no lowering of the score”, the “Score compared with control (in words)” value ([2]; until day 33) is reported as “slight lowering of the score” and the Score of arthritis ([2]; day 0) is reported as 0.0 ± 0.0. For the same compound, the Score of arthritis ([2]; day 23) was 0.1 ± 0.1, the Score of arthritis ([2]; day 27) was 3.4 ± 0.6 and the Score of arthritis ([2]; day 30) was 7.8 ± 1.0. For the same compound, the Score of arthritis ([2]; day 33) was 9.1 ± 0.9, the Score of arthritis ([2]; day 36) was 9.7 ± 0.8 and the Score of arthritis ([2]; day 40) was 9.9 ± 0.8. It also gave a Score of arthritis ([2]; day 42) of 9.8 ± 0.7.

Source: patent US20040053884A1, “Preventives or remedies for arthritis” (priority 2001, published 2004)
